Test results from ChEMBL document CHEMBL4680076, “Hydraphiles enhance antimicrobial potency against Escherichia coli, Pseudomonas aeruginosa, and Bacillus subtilis” (2016).
In brackets after ≈: the same amount, converted by molar mass. Activity calls are given as the source filed them. No cut-off for these calls is given here.

Experiments:
Pseudomonas aeruginosa [1] = assay: Antimicrobial activity against Pseudomonas aeruginosa assessed as inhibition of bacterial growth incubated for overnight by CLSI method; type: functional
Escherichia coli [2] = assay: Antimicrobial activity against Escherichia coli K-12 assessed as inhibition of bacterial growth incubated for overnight by CLSI method; type: functional
Escherichia coli [3] = assay: Growth inhibition of Escherichia coli DH5alpha at 25 uM measured every 15 mins for 12 hrs; type: functional, organism-based; conditions: DH5[alpha]
Bacillus subtilis [4] = assay: Antimicrobial activity against Bacillus subtilis assessed as inhibition of bacterial growth incubated for overnight by CLSI method; type: functional
Escherichia coli [5] = assay: Growth inhibition of Escherichia coli DH5alpha at 50 uM measured every 15 mins for 12 hrs; type: functional, organism-based; conditions: DH5[alpha]
Escherichia coli [6] = assay: Antimicrobial activity against Escherichia coli DH5alpha assessed as inhibition of bacterial growth incubated for overnight by CLSI method; type: functional; conditions: DH5[alpha]
Pseudomonas aeruginosa [7] = assay: Synergistic antimicrobial activity against Pseudomonas aeruginosa assessed as fold enhancement in erythromycin potency at 1 uM incubated for overnight by CLSI method; type: functional
Pseudomonas aeruginosa [8] = assay: Synergistic antimicrobial activity against Pseudomonas aeruginosa assessed as fold enhancement in erythromycin potency at 0.5 uM incubated for overnight by CLSI method; type: functional
Escherichia coli [9] = assay: Synergistic antimicrobial activity against Escherichia coli K-12 assessed as fold enhancement in rifampicin potency at 0.6 uM incubated for overnight by CLSI method; type: functional
Escherichia coli [10] = assay: Synergistic antimicrobial activity against Escherichia coli K-12 assessed as fold enhancement in kanamycin potency at 0.6 uM incubated for overnight by CLSI method; type: functional, organism-based
Pseudomonas aeruginosa [11] = assay: Synergistic antimicrobial activity against Pseudomonas aeruginosa assessed as fold enhancement in rifampicin potency at 1 uM incubated for overnight by CLSI method; type: functional
Escherichia coli [12] = assay: Synergistic antimicrobial activity against Escherichia coli K-12 assessed as fold enhancement in erythromycin potency at 1.25 uM incubated for overnight by CLSI method; type: functional
Escherichia coli [13] = assay: Synergistic antimicrobial activity against Escherichia coli K-12 assessed as fold enhancement in rifampicin potency at 1.25 uM incubated for overnight by CLSI method; type: functional
Escherichia coli [14] = assay: Synergistic antimicrobial activity against Escherichia coli K-12 assessed as fold enhancement in erythromycin potency at 0.6 uM incubated for overnight by CLSI method; type: functional
Pseudomonas aeruginosa [15] = assay: Synergistic antimicrobial activity against Pseudomonas aeruginosa assessed as fold enhancement in tetracycline potency at 0.5 uM incubated for overnight by CLSI method; type: functional
Pseudomonas aeruginosa [16] = assay: Synergistic antimicrobial activity against Pseudomonas aeruginosa assessed as fold enhancement in tetracycline potency at 1 uM incubated for overnight by CLSI method; type: functional
Escherichia coli [17] = assay: Growth inhibition of Escherichia coli DH5alpha at half MIC measured every 15 mins for 12 hrs in presence of 25 uM erythromycin; type: functional, organism-based; conditions: DH5[alpha]
Bacillus subtilis [18] = assay: Synergistic antimicrobial activity against Bacillus subtilis assessed as fold enhancement in tetracyclin potency at 0.12 uM incubated for overnight by CLSI method; type: functional
Escherichia coli [19] = assay: Growth inhibition of Escherichia coli DH5alpha at half MIC measured every 15 mins for 12 hrs; type: functional, organism-based; conditions: DH5[alpha]
Bacillus subtilis [20] = assay: Synergistic antimicrobial activity against Bacillus subtilis assessed as fold enhancement in erythromycin potency at 0.12 uM incubated for overnight by CLSI method; type: functional
Pseudomonas aeruginosa [21] = assay: Synergistic antimicrobial activity against Pseudomonas aeruginosa assessed as fold enhancement in rifampicin potency at 0.5 uM incubated for overnight by CLSI method; type: functional
Escherichia coli [22] = assay: Synergistic antimicrobial activity against Escherichia coli K-12 assessed as fold enhancement in tetracycline potency at 1.25 uM incubated for overnight by CLSI method; type: functional
Escherichia coli [23] = assay: Synergistic antimicrobial activity against Escherichia coli K-12 assessed as enhancement in rifampicin potency at 2.5 uM; type: functional, organism-based
Escherichia coli [24] = assay: Synergistic antimicrobial activity against Escherichia coli K-12 assessed as fold enhancement in kanamycin potency at 1.25 uM incubated for overnight by CLSI method; type: functional
Escherichia coli [25] = assay: Synergistic antimicrobial activity against Escherichia coli K-12 assessed as fold enhancement in tetracycline potency at 0.6 uM incubated for overnight by CLSI method; type: functional
Escherichia coli [26] = assay: Synergistic antimicrobial activity against Escherichia coli DH5alpha assessed as fold enhancement in kanamycin potency at 150 uM incubated for overnight by CLSI method; type: functional, DH5[alpha]
Escherichia coli [27] = assay: Synergistic antimicrobial activity against Escherichia coli DH5alpha assessed as fold enhancement in tetracycline potency at 75 uM incubated for overnight by CLSI method; type: functional, DH5[alpha]
[28] = Synergistic antimicrobial activity against Escherichia coli DH5alpha assessed as fold enhancement in erythromycin potency at 75 uM incubated for overnight by CLSI method; type: functional, K-12
Escherichia coli [29] = assay: Synergistic antimicrobial activity against Escherichia coli DH5alpha assessed as fold enhancement in rifampicin potency at 75 uM incubated for overnight by CLSI method; type: functional, DH5[alpha]
Escherichia coli [30] = assay: Synergistic antimicrobial activity against Escherichia coli DH5alpha assessed as fold enhancement in tetracycline potency at 150 uM incubated for overnight by CLSI method; type: functional, DH5[alpha]
Escherichia coli [31] = assay: Synergistic antimicrobial activity against Escherichia coli DH5alpha assessed as fold enhancement in erythromycin potency at 150 uM incubated for overnight by CLSI method; type: functional, DH5[alpha]
Escherichia coli [32] = assay: Synergistic antimicrobial activity against Escherichia coli DH5alpha assessed as fold enhancement in kanamycin potency at 75 uM incubated for overnight by CLSI method; type: functional, DH5[alpha]
Escherichia coli [33] = assay: Synergistic antimicrobial activity against Escherichia coli DH5alpha assessed as fold enhancement in rifampicin potency at 150 uM incubated for overnight by CLSI method; type: functional, DH5[alpha]

CC[C@H]1OC(=O)[C@H](C)[C@@H](O[C@H]2C[C@@](C)(OC)[C@@H](O)[C@H](C)O2)[C@H](C)[C@@H](O[C@@H]2O[C@H](C)C[C@H](N(C)C)[C@H]2O)[C@](C)(O)C[C@@H](C)C(=O)[C@H](C)[C@@H](O)[C@]1(C)O [ERYTHROMYCIN]
MIC (Pseudomonas aeruginosa [1]): 200 µM (≈ 147 µg/mL)
MIC (Escherichia coli [2]): 700 µM (≈ 514 µg/mL)
growth inhibition (GI) (Escherichia coli [3]): inactive
MIC (Bacillus subtilis [4]): 0.3 µM (≈ 0.22 µg/mL)
growth inhibition (GI) (Escherichia coli [5]): Active
MIC (Escherichia coli [6]): 200 µM (≈ 147 µg/mL)

CO[C@H]1/C=C/O[C@@]2(C)Oc3c(C)c(O)c4c(O)c(c(/C=N/N5CCN(C)CC5)c(O)c4c3C2=O)NC(=O)/C(C)=C\C=C\[C@H](C)[C@H](O)[C@@H](C)[C@@H](O)[C@@H](C)[C@H](OC(C)=O)[C@@H]1C [RIFAMPIN]
MIC (Pseudomonas aeruginosa [1]): 25 µM (≈ 20.6 µg/mL)
MIC (Escherichia coli [2]): 16 µM (≈ 13.2 µg/mL)
MIC (Escherichia coli [6]): 55 µM (≈ 45.3 µg/mL)

c1ccc(CN2CCOCCOCCN(CCCCCCCCCCCCCCCCN3CCOCCOCCN(CCCCCCCCCCCCCCCCN4CCOCCOCCN(Cc5ccccc5)CCOCCOCC4)CCOCCOCC3)CCOCCOCC2)cc1
MIC (Pseudomonas aeruginosa [1]): 2 µM (≈ 2.82 µg/mL)
fold change (FC) (Pseudomonas aeruginosa [7]): 8
fold change (FC) (Pseudomonas aeruginosa [8]): 4
MIC (Escherichia coli [6]): 4 µM (≈ 5.65 µg/mL)

CN(C)[C@@H]1C(O)=C(C(N)=O)C(=O)[C@@]2(O)C(O)=C3C(=O)c4c(O)cccc4[C@@](C)(O)[C@H]3C[C@@H]12 [TETRACYCLINE]
MIC (Pseudomonas aeruginosa [1]): 12 µM (≈ 5.33 µg/mL)
MIC (Escherichia coli [2]): 5 µM (≈ 2.22 µg/mL)
MIC (Bacillus subtilis [4]): 3 µM (≈ 1.33 µg/mL)
MIC (Escherichia coli [6]): 5 µM (≈ 2.22 µg/mL)

c1ccc(CN2CCOCCOCCN(CCCCCCCCCCCCCCN3CCOCCOCCN(CCCCCCCCCCCCCCN4CCOCCOCCN(Cc5ccccc5)CCOCCOCC4)CCOCCOCC3)CCOCCOCC2)cc1
MIC (Pseudomonas aeruginosa [1]): 2 µM (≈ 2.71 µg/mL)
fold change (FC) (Escherichia coli [9]): 4
fold change (FC) (Escherichia coli [10]): inactive
MIC (Escherichia coli [2]): 2.5 µM (≈ 3.39 µg/mL)
fold change (FC) (Pseudomonas aeruginosa [11]): 11
fold change (FC) (Escherichia coli [12]): 9
MIC (Bacillus subtilis [4]): 0.5 µM (≈ 0.678 µg/mL)
fold change (FC) (Escherichia coli [13]): 30
fold change (FC) (Escherichia coli [14]): 2
fold change (FC) (Pseudomonas aeruginosa [15]): 2
fold change (FC) (Pseudomonas aeruginosa [16]): 4
growth inhibition (GI) (Escherichia coli [17]): Active
fold change (FC) (Bacillus subtilis [18]): 2
growth inhibition (GI) (Escherichia coli [19]): inactive
fold change (FC) (Pseudomonas aeruginosa [7]): 8
fold change (FC) (Bacillus subtilis [20]): 2
fold change (FC) (Pseudomonas aeruginosa [8]): 4
fold change (FC) (Pseudomonas aeruginosa [21]): 5
fold change (FC) (Escherichia coli [22]): 5
MIC (Escherichia coli [6]): 2 µM (≈ 2.71 µg/mL)
Activity (Escherichia coli [23]): Active
fold change (FC) (Escherichia coli [24]): 2
fold change (FC) (Escherichia coli [25]): 2

c1ccc(CN2CCOCCOCCN(CCCCCCCCN3CCOCCOCCN(CCCCCCCCN4CCOCCOCCN(Cc5ccccc5)CCOCCOCC4)CCOCCOCC3)CCOCCOCC2)cc1
fold change (FC) (Escherichia coli [26]): 3
fold change (FC) (Escherichia coli [27]): 2
fold change (FC) [28]: 8
MIC (Escherichia coli [2]): 200 µM (≈ 238 µg/mL)
fold change (FC) (Escherichia coli [29]): 18
fold change (FC) (Escherichia coli [30]): 5
MIC (Escherichia coli [6]): 300 µM (≈ 356 µg/mL)
Activity (Escherichia coli [23]): inactive
fold change (FC) (Escherichia coli [31]): 13
fold change (FC) (Escherichia coli [32]): 2
fold change (FC) (Escherichia coli [33]): 18
